The source of these data is patent US20090137549A1, “Novel compounds useful for the treatment of degenerative & inflamatory diseases” (priority 2006, published 2009).

The term IC50 denotes the concentration needed to halve the response being measured.

The experiment has as its target PDE1A (Homo sapiens, UniProt P54750). The experiment is described as follows: PDE1A dose response, Cyclic Nucleotide Phosphodiesterase Assay Kit from Biomol (colorimetric). To be noted: purified PDE1A enzyme, 100 μM cAMP. The class given is biochemical. Put shortly: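 Purified PDE1A hydrolysed 100 μM cAMP with 5′-nucleotidase in Tris 20 mM pH 7.4 with calmodulin, Ca2+, Mg2+, 45 min at 37° C. Released phosphate read by malachite-green absorbance at 615 nm. Duplicate 8-point 1/3 dilutions from 20 μM, 1% DMSO; 10 μM vardenafil defined 100% inhibition.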
Molecule `COc1cccc(C(=O)N2CCCC(c3nc4c(c(C)nn4C4CCCCC4)c(=O)[nH]3)C2)c1` (stereo not drawn) [Example 71, 1-cyclohexyl-6-(1-(3-methoxybenzoyl)piperidin-3-yl)-3-methyl-1H-pyrazolo[3,4-d]pyrimidin-4(5H)-one] returned an IC50 of 101 to 500 nM. For `Cc1nn(C2CCCCC2)c2nc(C3CN(C(=O)c4ccccc4)C3)[nH]c(=O)c12` [Example 72, 6-(1-benzoylazetidin-3-yl)-1-cyclohexyl-3-methyl-1H-pyrazolo[3,4-d]pyrimidin-4(5H)-one] the value was 101 to 500 nM. For `COC(=O)c1cccc(C(=O)N2CCCC(c3nc4c(c(C)nn4C4CCCCC4)c(=O)[nH]3)C2)c1` (stereo not drawn) [Example 73, methyl 3-(3-(1-cyclohexyl-3-methyl-4-oxo-4,5-dihydro-1H-pyrazolo[3,4-d]pyrimidin-6-yl)piperidine-1-carbonyl)benzaate] the value was 101 to 500 nM; for `Cn1cncc1CNC(=O)N1CC(c2nc3c(cnn3C3CCCCC3)c(=O)[nH]2)C1` [Example 74, 3-(1-cyclohexyl-4-oxo-4,5-dihydro-1H-pyrazolo[3,4-d]pyrimidin-6-yl)-N-((1-methyl-1H-imidazol-5-yl)methyl)azetidine-1-carboxamide], 101 to 500 nM; for `COc1ccc(S(=O)(=O)N2CCCC(c3nc4c(c(C)nn4-c4ccccc4)c(=O)[nH]3)C2)cc1` (stereo not drawn) [Example 75, 6-(1-(4-methoxyphenylsulfonyl)piperidin-3-yl)-3-methyl-1-phenyl-1H-pyrazolo[3,4-d]pyrimidin-4(5H)-one], 101 to 500 nM.

On to `O=C(c1ccc2c(c1)OCO2)N1CCCC(c2nc3c(cnn3C3CCCCC3)c(=O)[nH]2)C1` (stereo not drawn) [Example 76, 6-(1-(benzo[d][1,3]dioxole-5-carbonyl)piperidin-3-yl)-1-cyclohexyl-1H-pyrazolo[3,4-d]pyrimidin-4(5H)-one], for which the IC50 fell in the range of 101 to 500 nM.

In turn, `COc1ccc(C(=O)N2CCCC(c3nc4c(c(C)nn4C4CCCCC4)c(=O)[nH]3)C2)cc1` (stereo not drawn) [Example 77, 1-cyclohexyl-6-(1-(4-methoxybenzoyl)piperidin-3-yl)-3-methyl-1H-pyrazolo[3,4-d]pyrimidin-4(5H)-one] had an IC50 of 101 to 500 nM.

Turning to `COc1cccc(C(=O)N2CCCC(c3nc4c(c(C)nn4C4CCC4)c(=O)[nH]3)C2)c1` (stereo not drawn) [Example 78, 1-cyclobutyl-6-(1-(3-methoxybenzoyl)piperidin-3-yl)-3-methyl-1H-pyrazolo[3,4-d]pyrimidin-4(5H)-one], the IC50 was 501 to 1000 nM.

On to `COc1cccc(S(=O)(=O)N2CCCC(c3nc4c(cnn4C4CCCCC4)c(=O)[nH]3)C2)c1` (stereo not drawn) [Example 79, 1-cyclohexyl-6-(1-(3-methoxyphenylsulfonyl)piperidin-3-yl)-1H-pyrazolo[3,4-d]pyrimidin-4(5H)-one], for which the IC50 fell in the range of 501 to 1000 nM. `Cc1nn(-c2ccccc2)c2nc(C3CCCN(C(=O)c4ccc(N(C)C)cc4)C3)[nH]c(=O)c12` (stereo not drawn) [Example 80, 6-(1-(4-(dimethylamino)benzoyl)piperidin-3-yl)-3-methyl-1-phenyl-1H-pyrazolo[3,4-d]pyrimidin-4(5H)-one] came in with an IC50 of 501 to 1000 nM. For `COc1cccc(C(=O)N2CCCC(c3nc4c(c(C)nn4-c4ccccc4)c(=O)[nH]3)C2)c1` (stereo not drawn) [Example 81, 6-(1-(3-methoxybenzoyl)piperidin-3-yl)-3-methyl-1-phenyl-1H-pyrazolo[3,4-d]pyrimidin-4(5H)-one] the value was 501 to 1000 nM; for `COc1ccccc1C(=O)N1CCCC(c2nc3c(c(C)nn3C3CCC3)c(=O)[nH]2)C1` (stereo not drawn) [Example 82, 1-cyclobutyl-6-(1-(2-methoxybenzoyl)piperidin-3-yl)-3-methyl-1H-pyrazolo[3,4-d]pyrimidin-4(5H)-one], 501 to 1000 nM; for `O=C(N1CCCCC1)N1CC(c2nc3c(cnn3C3CCCCC3)c(=O)[nH]2)C1` [Example 83, 1-cyclohexyl-6-(1-(piperidine-1-carbonyl)azetidin-3-yl)-1H-pyrazolo[3,4-d]pyrimidin-4(5H)-one], 501 to 1000 nM. As for `O=C(NCCN1CCCC1)N1CC(c2nc3c(cnn3C3CCCCC3)c(=O)[nH]2)C1` [Example 84, 3-(1-cyclohexyl-4-oxo-4,5-dihydro-1H-pyrazolo[3,4-d]pyrimidin-6-yl)-N-(2-(pyrrolidin-1-yl)ethyl)azetidine-1-carboxamide], the figure is 501 to 1000 nM; as for `Cc1nn(C2CCCCC2)c2nc(C3CN(C(=O)Cc4ccccc4)C3)[nH]c(=O)c12` [Example 85, 1-cyclohexyl-3-methyl-6-(1-(2-phenylacetoyl)azetidin-3-yl)-1H-pyrazolo[3,4-d]pyrimidin-4(5H)-one], 501 to 1000 nM; as for `Cc1ccc(S(=O)(=O)N2CCCC(c3nc4c(c(C)nn4C4CCCCC4)c(=O)[nH]3)C2)cc1` (stereo not drawn) [Example 86, 1-cyclohexyl-3-methyl-6-(1-(p-tolylsulfonyl)piperidin-3-yl)-1H-pyrazolo[3,4-d]pyrimidin-4(5H)-one], 501 to 1000 nM. For `Cc1ccccc1C(=O)N1CCCC(c2nc3c(c(C)nn3C3CCCCC3)c(=O)[nH]2)C1` (stereo not drawn) [Example 87, 1-cyclohexyl-3-methyl-6-(1-(2-methylbenzoyl)piperidin-3-yl)-1H-pyrazolo[3,4-d]pyrimidin-4(5H)-one] the value was 501 to 1000 nM. `O=C(NCCCN1CCOCC1)N1CC(c2nc3c(cnn3C3CCCCC3)c(=O)[nH]2)C1` [Example 88, 3-(1-cyclohexyl-4-oxo-4,5-dihydro-1H-pyrazolo[3,4-d]pyrimidin-6-yl)-N-(3-morpholinopropyl)azetidine-1-carboxamide] gave an IC50 of 501 to 1000 nM.

For `Cc1nn(C2CCCCC2)c2nc(C3CCCN(C(=O)c4ccccc4)C3)[nH]c(=O)c12` (stereo not drawn) [Example 89, 6-(1-benzoylpiperidin-3-yl)-1-cyclohexyl-3-methyl-1H-pyrazolo[3,4-d]pyrimidin-4(5H)-one], the IC50 lay in the range of 501 to 1000 nM.

`COc1ccccc1C(=O)N1CCCC(c2nc3c(c(C)nn3-c3ccccc3)c(=O)[nH]2)C1` (stereo not drawn) [Example 90, 6-(1-(2-methoxybenzoyl)piperidin-3-yl)-3-methyl-1-phenyl-1H-pyrazolo[3,4-d]pyrimidin-4(5H)-one] showed an IC50 of 501 to 1000 nM.

`Cc1nn(C2CCCCC2)c2nc(C3CCCN(C(=O)c4ccccc4Cl)C3)[nH]c(=O)c12` (stereo not drawn) [Example 91, 6-(1-(2-chlorobenzoyl)piperidin-3-yl)-1-cyclohexyl-3-methyl-1H-pyrazolo[3,4-d]pyrimidin-4(5H)-one]: the IC50 is 501 to 1000 nM.

`Cc1nn(C2CCCCC2)c2nc(C3CCCN(C(=O)c4ccccc4F)C3)[nH]c(=O)c12` (stereo not drawn) [Example 92, 1-cyclohexyl-6-(1-(2-fluorobenzoyl)piperidin-3-yl)-3-methyl-1H-pyrazolo[3,4-d]pyrimidin-4(5H)-one]: the IC50 was 501 to 1000 nM. Molecule `COc1ccccc1C(=O)N1CC(c2nc3c(c(C)nn3C3CCCCC3)c(=O)[nH]2)C1` [Example 93, 1-cyclohexyl-6-(1-(2-methoxybenzoyl)azetidin-3-yl)-3-methyl-1H-pyrazolo[3,4-d]pyrimidin-4(5H)-one] came in with an IC50 of 501 to 1000 nM. For `O=C(N1CCOCC1)N1CC(c2nc3c(cnn3C3CCCCC3)c(=O)[nH]2)C1` [Example 94, 1-cyclohexyl-6-(1-(morpholine-4-carbonyl)azetidin-3-yl)-1H-pyrazolo[3,4-d]pyrimidin-4(5H)-one] the value was 501 to 1000 nM; for `Cc1nn(C2CCCCC2)c2nc(C3CCCN(C(=O)c4cccn4C)C3)[nH]c(=O)c12` (stereo not drawn) [Example 95, 1-cyclohexyl-3-methyl-6-(1-(1-methyl-1H-pyrrole-2-carbonyl)piperidin-3-yl)-1H-pyrazolo[3,4-d]pyrimidin-4(5H)-one], 501 to 1000 nM; for `Cc1nn(C2CCCCC2)c2nc(C3CCCN(C(=O)c4ccc(C(F)(F)F)cc4)C3)[nH]c(=O)c12` (stereo not drawn) [Example 96, 1-cyclohexyl-3-methyl-6-(1-(4-(trifluoromethyl)benzoyl)piperidin-3-yl)-1H-pyrazolo[3,4-d]pyrimidin-4(5H)-one], 501 to 1000 nM.

As for `Cc1nn(C2CCCCC2)c2nc(C3CCCN(C(=O)c4ccsc4)C3)[nH]c(=O)c12` (stereo not drawn) [Example 97, 1-cyclohexyl-3-methyl-6-(1-(thiophene-3-carbonyl)piperidin-3-yl)-1H-pyrazolo[3,4-d]pyrimidin-4(5H)-one], the IC50 was in the range of 1000 to 1500 nM. As for `Cc1nn(C2CCCCC2)c2nc(C3CCCN(S(=O)(=O)c4cn(C)cn4)C3)[nH]c(=O)c12` (stereo not drawn) [Example 98, 1-cyclohexyl-3-methyl-6-(1-(1-methyl-1H-imidazol-4-ylsulfonyl)piperidin-3-yl)-1H-pyrazolo[3,4-d]pyrimidin-4(5H)-one], the figure is 1000 to 1500 nM; as for `COc1ccccc1NC(=O)N1CCCC(c2nc3c(c(C)nn3C3CCCCC3)c(=O)[nH]2)C1` (stereo not drawn) [Example 99, 3-(1-cyclohexyl-3-methyl-4-oxo-4,5-dihydro-1H-pyrazolo[3,4-d]pyrimidin-6-yl)-N-(2-methoxyphenyl)piperidine-1-carboxamide], 1000 to 1500 nM. Molecule `Cc1nn(C2CCCCC2)c2nc(C3CCCN(S(=O)(=O)c4ccccc4Cl)C3)[nH]c(=O)c12` (stereo not drawn) [Example 100, 6-(1-(2-chlorophenylsulfonyl)piperidin-3-yl)-1-cyclohexyl-3-methyl-1H-pyrazolo[3,4-d]pyrimidin-4(5H)-one] returned an IC50 of 1000 to 1500 nM. `Cc1nn(C2CCCCC2)c2nc(C3CCCN(C(=O)c4cccs4)C3)[nH]c(=O)c12` (stereo not drawn) [Example 101, 1-cyclohexyl-3-methyl-6-(1-(thiophene-2-carbonyl)piperidin-3-yl)-1H-pyrazolo[3,4-d]pyrimidin-4(5H)-one] registered an IC50 of 1000 to 1500 nM. For `Cc1nn(C2CCC2)c2nc(C3CCCN(C(=O)c4ccc(C#N)cc4)C3)[nH]c(=O)c12` (stereo not drawn) [Example 102, 4-(3-(1-cyclobutyl-3-methyl-4-oxo-4,5-dihydro-1H-pyrazolo[3,4-d]pyrimidin-6-yl)piperidine-1-carbonyl)benzonitrile] the value was 1000 to 1500 nM; for `Cc1nn(C2CCCCC2)c2nc(C3CCCN(S(=O)(=O)Cc4ccccc4)C3)[nH]c(=O)c12` (stereo not drawn) [Example 103, 6-(1-(benzylsulfonyl)piperidin-3-yl)-1-cyclohexyl-3-methyl-1H-pyrazolo[3,4-d]pyrimidin-4(5H)-one], 1000 to 1500 nM.
